Assay results: US7531565B2, “Imidazolidin-2-one derivatives as selective androgen receptor modulators (SARMS)” (Janssen Pharmaceutica, N.V., priority 2004, dated 2009)

Each molecule was assayed against T1, androgen receptor (Rattus norvegicus, UniProt P15207) (assay: COS-7 whole-cell androgen receptor binding assay, adenovirus transduction). Conditions: 3 μM (3000 nM); COS-7 cells, [3H]R1881, AdEasy+rAR.
T1 sequence (P15207 1-902): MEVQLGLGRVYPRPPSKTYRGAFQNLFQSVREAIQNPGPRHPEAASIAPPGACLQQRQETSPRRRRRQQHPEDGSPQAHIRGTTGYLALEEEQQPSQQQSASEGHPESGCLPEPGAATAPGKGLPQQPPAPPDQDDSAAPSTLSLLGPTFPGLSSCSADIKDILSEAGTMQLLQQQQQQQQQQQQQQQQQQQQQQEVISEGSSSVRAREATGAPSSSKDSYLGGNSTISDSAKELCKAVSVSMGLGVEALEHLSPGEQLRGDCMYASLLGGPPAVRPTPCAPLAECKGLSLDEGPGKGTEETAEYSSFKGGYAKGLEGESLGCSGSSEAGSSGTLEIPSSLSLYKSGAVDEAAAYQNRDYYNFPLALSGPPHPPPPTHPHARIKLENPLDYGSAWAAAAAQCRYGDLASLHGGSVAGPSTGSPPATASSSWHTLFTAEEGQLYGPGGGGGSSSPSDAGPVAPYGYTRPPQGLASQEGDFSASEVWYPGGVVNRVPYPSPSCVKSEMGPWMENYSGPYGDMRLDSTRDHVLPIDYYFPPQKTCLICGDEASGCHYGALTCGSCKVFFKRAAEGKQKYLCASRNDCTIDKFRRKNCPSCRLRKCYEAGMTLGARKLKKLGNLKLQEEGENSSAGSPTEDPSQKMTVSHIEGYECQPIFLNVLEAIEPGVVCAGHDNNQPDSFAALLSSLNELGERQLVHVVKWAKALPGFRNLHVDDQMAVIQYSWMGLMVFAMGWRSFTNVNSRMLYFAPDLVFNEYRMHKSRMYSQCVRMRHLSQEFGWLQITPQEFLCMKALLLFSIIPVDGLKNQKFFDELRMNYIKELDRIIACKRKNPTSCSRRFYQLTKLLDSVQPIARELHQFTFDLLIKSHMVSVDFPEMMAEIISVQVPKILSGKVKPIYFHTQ
Parameters: expressed in transfected cells
Experimental: COS-7 cells were plated in 96-well plates at 20,000 cells per well, in a solution of DMEM/F12 (GIBCO) containing 10% (v/v) charcoal-treated fetal bovine serum (Hyclone) and lacking phenol red. The cells were then incubated overnight at 37° C. in 5% (v/v) humidified CO2.
Test compound solutions were prepared by diluting the test compound in 100% (v/v) DMSO, if necessary. Each dilution yielded a solution which was 625× the final desired test concentration.
Next, 1 mL of DMEM/F12 lacking phenol red was pipetted into each of the wells of a 2-mL 96-well assay block. Then 4 μL of the 625× test compound dilutions were pipetted into each well of the assay block. The wells were carefully mixed by pipette.
In a 15 mL or 50 mL sterile centrifuge tube, a 2.5 nM dilution of tritiated methyl-trienolone in DMEM/F12 lacking phenol red ([^3H]R1881; Perkin-Elmer) was prepared.
In a 15 mL or 50 mL sterile centrifuge tube, a dilution in DMEM/F12 of the adenovirus AdEasy+rAR at a moi of 1:50 per well was prepared.
The medium was removed from the 96-well plates by inversion and the plates dried very briefly, inverted, on a sterile towel. As soon as possible after medium removal, 40 μL of the diluted test compound was added to each well, in duplicate. To each well was then added 40 μL of the 2.5 nM [^3H]R1881 and 20 μL of the diluted adenovirus. The plates were then incubated for 48 hours at 37° C. in 5% (v/v) humidified CO2.
The medium was removed from the above incubated plates by inversion and dried. Each well was then washed with 0.35 mL of 1×PBS. The PBS was then removed from the plates by inversion and the plates dried.
To each well was then added 50 μL of 0.5% (v/v) Triton X-100 (Sigma) in 1×PBS and the plates placed on a rotary shaker for 5 min. The contents of each well were then transferred to an OptiPlate-96 (Packard) scintillation plate. To each well was then added 0.2 mL of Microscint-20 (Packard) and the wells counted on a TopCount (Packard).
Percent inhibition was determined by testing dilutions of the test compound (usually duplicates of 10 μM) in the binding assay. Counts per well were measured and percents of inhibition determined. Androgen receptor binding IC50s were determined by testing serial dilutions of the test compound (usually duplicate ten half-log dilutions starting at 10 μM) in the binding assay. Counts per well were measured and IC50s determined by linear regression.
Representative compounds of the present invention were tested for binding to the androgen receptor according to the procedure described above with results as listed in Table C. Unless otherwise noted, COS binding % inhibition was determined using a concentration of 3000 nM. For compounds tested more than once, each result is listed separately in Table 3 below.

In order of rising “% Inhibition @ 3 μM” value:
1. CC1(C(=O)Nc2cccc(C(F)(F)F)c2)CN(c2ccc(F)cc2)C(=O)N1 (racemic) [Compound 6g]  −40%
2. COC(=O)C1(C)CN(c2ccc(Cl)c(C(F)(F)F)c2)C(=O)N1 (racemic) [Compound 4d]  −30%
3. CC1(C(=O)O)CN(c2ccc(Cl)c(C(F)(F)F)c2)C(=O)N1 (racemic) [Compound 5d]  −26%
4. COc1ccc(N2CC(C)(C(=O)O)NC2=O)cc1 (racemic) [Compound 5c]  −11%
5. COC(=O)C1(C)CN(c2ccc(OC)cc2)C(=O)N1 (racemic) [Compound 4c]  −8%
6. CC1(C(=O)O)CN(c2ccccc2)C(=O)N1 (racemic) [Compound 5b]  15%
7. COC(=O)C1(C)CN(c2ccccc2)C(=O)N1 (racemic) [Compound 4b]  16%
8. CC1(C(=O)Nc2ccc(C(F)(F)F)nc2)CN(c2ccccc2)C(=O)N1 (racemic) [Compound 6j]  18%
9. CC1(C(=O)Nc2ccccc2)CN(c2ccccc2)C(=O)N1 (racemic) [Compound 6b]  22%
10. COc1ccc(N2CC(C)(C(=O)Nc3ccc(C#N)c(C(F)(F)F)c3)NC2=O)cc1 (racemic) [Compound 6c]  24%
11. COC(=O)C1(C)CN(c2ccc(C#N)c(C(F)(F)F)c2)C(=O)N1 (racemic) [Compound 4e]  27%
12. CC1(C(=O)Nc2ccc([N+](=O)[O-])c(C(F)(F)F)c2)CN(c2ccccc2)C(=O)N1 (racemic) [Compound 6e]  37%
13. CC1(C(=O)Nc2ccc(C#N)c(C(F)(F)F)c2)CN(c2ccccc2)C(=O)N1 (racemic) [Compound 6d]  40%
14. CC1(C(=O)Nc2cc(C(F)(F)F)cc(C(F)(F)F)c2)CN(c2ccc(F)cc2)C(=O)N1 (racemic) [Compound 6h]  76%

Same assay, conditions: read-out: % Inhibition @ 3 μM

In order of falling inhibition at 3 µM:
1. CC1(C(=O)Nc2ccc(C#N)c(C(F)(F)F)c2)CN(c2ccc(F)cc2)C(=O)N1 (stereo not shown) [Compound 6a, 1-(4-Fluoro-phenyl)-4-methyl-2-oxo-imidazolidine-4-carboxylic acid (4-cyano-3-trifluoromethyl-phenyl)-amide]  43%
2. CC1(C(=O)O)CN(c2ccc(F)cc2)C(=O)N1 (stereo not shown) [Compound 5a, 1-(4-Fluoro-phenyl)-4-methyl-2-oxo-imidazolidine-4-carboxylic acid]  -14%
